The source of these data is patent publication US20220160713A1, “SELECTIVE INHIBITOR OF PROTEIN ARGININE […] 5 (PRMT5)” (PRELUDE THERAPEUTICS, INCORPORATED, priority 2019, published 2022).

In brackets after ≈: the same amount, converted by molar mass. Entries after “also recorded” stand apart in the source; their conditions may differ. A value given as a limit tells only on which side of the number the result lay.

The nature of data set [1]: physchem. Conditions: 25 °C, thermodynamic from solid. As to the method: Compounds are first dispersed in freshly prepared FaSSIF (http://biorelevant.com/site_media/upload/documents/How_to_make_FaSSIF_FeSSIF_and_FaSSGF.pdf) buffer in 1 mg/mL respectively, and the standard samples are prepared by preparing 1 mg/mL of test compounds in DMSO. The compounds are then sufficient mixed by vortex mixer for 30 sec, and agitated at 25° C. using 300 rpm form 4 hour in thermo mixer. After incubation, the prepared samples are centrifuged at 10000 rpm for 10 min to remove the undissolved solid, the resulting supernatants are applied to HPLC. The actual concentrations of the compounds are evaluated by measuring the peak area, and the solubility (S) of compounds is calculated according to following equation:
S=Csmp=Cstd*(Asmp/Astd)*(Vstd/Vsmp)
Where C is the sample concentration in μg/mL, A is the peak area, and V is the injection volume.

In data set [2] the test system is Symmetric Di-Methyl Arginine (sDMA) marks in Granta-519 cell line. In words: Cellular sDMA western blot in Granta cells. It is filed as cell-based. Conditions: Homo sapiens, 72 h, 3 days. (In general: A western blot detects proteins with antibodies after separation by electrophoresis.)
Data set [3] deals with Granta-519 cells. Description: Cell proliferation assay on Granta-519 cells (CCK-8). It is filed as cell-based. Conditions: Homo sapiens, 240 h; Granta-519 cell line, day 10; read-out: Prolif. IC50. As to the method:
Granta-519 cells are maintained in PRMI 1640 (Corning Cellgro, Catalog #: 10-040-CV) medium supplemented with 10% v/v FBS (GE Healthcare, Catalog #: SH30910.03). Formula I is dissolved in DMSO to make 10 mM stocks and stored at −20° C. Nine-point, 3-fold serial dilutions are made with DMSO with top concentration at 1 mM (working stocks).
On day of experiment, compound working stocks are further diluted at 1:50 with fresh medium in 96 well plate, and 10 μL of diluted drugs are added to a new 96 well plate for proliferation assay. Cells growing at exponential phase are spun down at 1500 rpm for 4 min and resuspend in fresh medium to reach a density of 0.5×10^6 cells/ml. 200 ul of cells are added to 96 well plate containing diluted drugs and incubated for 3 days. DMSO is used a vehicle control.
One day 3, 10 μL of Cell Counting Kit-8 (CCK-8, Jojindo, CK04-13) solution is added to a new 96 well plate. […] Plates are incubated in CO2 incubator for 2 hours and OD450 values are measured with a microplate reader (iMark microplate reader, Bio-Rad). […]
Percentage of viable cells, relative to DMSO vehicle control, is calculated and plotted in Graphpad Prism ([Inhibitor] vs. normalized response−Variable slope) to determine proliferation IC50 values on day 10.

Data set [4] is described as follows: Rat non-crossover PK study. The data set is classed as in vivo, rat (SD, male, non-fasted). The note with it: 1 mg/kg p.o. As to the method: In a rat (SD, male, non-fasted) non-crossover PK study, the compound of Formula I was dosed at 1 mg/kg (DMA: 20% HPBCD=5:95, solution) via i.v. administration (N=3) and 1 mg/kg (0.5% Na CMC+0.5% Tween80, solution) via oral gauge (p.o.) (N=3).

Data set [5] deals with Granta-519 mouse xenograft. In words: Tumor growth inhibition in Granta-519 mouse xenograft model. The data set is classed as in vivo. The method, then:
(§1) Granta-519 cells was maintained in DMEM medium supplemented with 10% fetal bovine serum and 2 mM L-Glutamine at 37° C. in an atmosphere of 5% CO2 in air. Cells in exponential growth phase were harvested and 1×10^7 cells in 0.1 mL of PBS with Matrigel (1:1) were injected subcutaneously at the right lower flank region of each mouse for tumor development. The treatments were started when the mean tumor size reaches approximately 300-400 mm^3. […] Formula I or vehicle (0.5% Na CMC+0.5% Tween80, suspension) were administered orally (QD for Formula I, QD for vehicle) at a dose of 30 mg/kg and 50 mg/kg for 19 and 16 days, respectively. Body weights and tumor size were measured every 3 to 4 days after randomization. Animals were euthanized 12 hours after last dosing, and blood and tumor samples were collected for analysis.

Data set [6] relates to sDMA in Granta-519 tumor samples. Description: sDMA levels in tumor samples of Granta-519 mouse xenograft (western blot). It is filed as in vivo. The method, then: as §1
To measure sDMA levels in tumor samples, tumors from each mouse were weighted and homogenized in RIPA buffer supplemented with protease inhibitor (cOmplete™, EDTA-free Protease Inhibitor Cocktail, Roche). Lysate were centrifuged at 14,000 rpm for 30 min at 4° C. to remove debris. Total protein concentrations of lysate were determined by BCA assay (ThermoFisher Scientific, Catalog #: 23225). Equal amount of total proteins from each tumor were separated on SDS-PAGE gel, and sDMA levels were determined by WB as described previously.

Data set [7] in a line: Dynamic vapor sorption (DVS). The data set is classed as physicochemical. As to the method:
The dynamic vapor sorption experiments can be done with a VTI SGA-Cx100 Symmetric Vapor Sorption Analyzer. The moisture uptake profile is completed in three cycles of 10% RH increments with adsorption from 5% to 95% RH, followed by desorption of 10% increments from 95% to 5%. The equilibration criteria are 0.0050 wt % in 5 minutes with a maximum equilibration time of 180 minutes. All adsorption and desorption are performed at room temperature (21-22° C.). No pre-drying step is applied for the samples.

A short description of data set [8]: Gravimetric solubility estimate in water. It is filed as physicochemical. Conditions: thermodynamic from solid.
[9] abbreviates: room temperature, normal humidity range (40-50% RH).

For orientation: solubility means how much of the substance goes into solution per volume. `O=C1C(O)=C([C@H]2CC[C@H](c3ccc(Cl)cc3)CC2)C(=O)c2ccccc21` [Atovaquone] showed a solubility at 4 h in data set [1] (fassif) of less than 2 µg/mL.
As usually defined, the IC50 is the concentration that gives 50% inhibition. As usually defined, the bioavailability is dose-corrected exposure relative to a reference, in per cent. Read a low bioavailability as little systemic uptake. As for `C[C@@]1(O)[C@@H]([C@H](O)c2ccc(Cl)c(Cl)c2)O[C@@H](n2ccc3c(N)ncnc32)[C@@H]1O` [Formula I, (2R,3S,4R,5R)-5-(4-amino-7H-pyrrolo[2,3-d]pyrimidin-7-yl)-2-((R)-(3,4-dichlorophenyl)(hydroxy)methyl)-3-methyltetrahydrofuran-3,4-diol], the IC50 is 31 nM in data set [2] and 75 nM in data set [3]. In addition, the “average dose normalized AUC” value in data set [4] was found to be 3246 ng·kg·h/mL/mg. Further, the bioavailability in data set [4] (male, SD, blood, po) is more than 100%. Further, the body weight loss in data set [5] (30 mg/kg orally QD, 19 days) is 1%; in data set [5] (50 mg/kg orally QD, 16 days), 8%. Moreover, the tumor growth inhibition in data set [5] (30 mg/kg orally QD, 19 days) stood at 46%; in data set [5] (50 mg/kg orally QD, 16 days), 79%. In data set [6] (30 mg/kg orally QD), the “inhibition of sDMA in tumor” value is given as more than 90%. In data set [6] (50 mg/kg orally QD), the sDMA in tumor entry was “no detectable sDMA”.
As to `C[C@@]1(O)[C@@H]([C@H](O)c2ccc(Cl)c(Cl)c2)O[C@@H](n2ccc3c(N)ncnc32)[C@@H]1O` [Formula I, Form I, (2R,3S,4R,5R)-5-(4-amino-7H-pyrrolo[2,3-d]pyrimidin-7-yl)-2-((R)-(3,4-dichlorophenyl)(hydroxy)methyl)-3-methyltetrahydrofuran-3,4-diol], the “change of form, XRPD before and after DVS” value in data set [7] is “did not change the polymorphic form; also recorded: no change in form”. For the same compound, the “water adsorbed (adsorption/desorption isotherms)” value is reported as approximately 0.5% in data set [7] (at about 95% humidity) and approximately 0.8% in data set [7] (setting [9]).
As for `C[C@@]1(O)[C@@H]([C@H](O)c2ccc(Cl)c(Cl)c2)O[C@@H](n2ccc3c(N)ncnc32)[C@@H]1O.O=C(O)/C=C\C(=O)O` [Formula IA, (2R,3S,4R,5R)-5-(4-amino-7H-pyrrolo[2,3-d]pyrimidin-7-yl)-2-((R)-(3,4-dichlorophenyl)(hydroxy)methyl)-3-methyltetrahydrofuran-3,4-diol, maleate salt], in data set [8], the solubility is approximately 1100 µg/mL.
On to `C[C@@]1(O)[C@@H]([C@H](O)c2ccc(Cl)c(Cl)c2)O[C@@H](n2ccc3c(N)ncnc32)[C@@H]1O.Cl` [Formula IB, (2R,3S,4R,5R)-5-(4-amino-7H-pyrrolo[2,3-d]pyrimidin-7-yl)-2-((R)-(3,4-dichlorophenyl)(hydroxy)methyl)-3-methyltetrahydrofuran-3,4-diol, hydrochloride salt], for which the solubility in data set [8] is approximately 800 µg/mL.
On to `C[C@@]1(O)[C@@H]([C@H](O)c2ccc(Cl)c(Cl)c2)O[C@@H](n2ccc3c(N)ncnc32)[C@@H]1O.Cl` [Formula IB, Form III], for which the “change of form, XRPD before and after DVS” value in data set [7] was “no change in form”. Besides, the entries for the “water adsorbed (adsorption/desorption isotherms)” value in data set [7] (at about 95% humidity) and in data set [7] (setting [9]) were approximately 2.8% and approximately 1%, respectively.
Taken in the same sequence, the figures for `C[C@@]1(O)[C@@H]([C@H](O)c2ccc(Cl)c(Cl)c2)O[C@@H](n2ccc3c(N)ncnc32)[C@@H]1O.Cl` [Formula IB, Form II] were “no change in Form”, approximately 6% and approximately 3%.
Taken in the same sequence, the figures for `C[C@@]1(O)[C@@H]([C@H](O)c2ccc(Cl)c(Cl)c2)O[C@@H](n2ccc3c(N)ncnc32)[C@@H]1O.Cl` [Formula IB, Form I] were “no change in Form”, approximately 0.5% and approximately 0.1%.
Consider `C[C@@]1(O)[C@@H]([C@H](O)c2ccc(Cl)c(Cl)c2)O[C@@H](n2ccc3c(N)ncnc32)[C@@H]1O.O=C(O)C(=O)O` [Formula IC, (2R,3S,4R,5R)-5-(4-amino-7H-pyrrolo[2,3-d]pyrimidin-7-yl)-2-((R)-(3,4-dichlorophenyl)(hydroxy)methyl)-3-methyltetrahydrofuran-3,4-diol, oxalate salt], for which the solubility in data set [8] was less than 300 µg/mL.
Same read-out and setting: then `C[C@@]1(O)[C@@H]([C@H](O)c2ccc(Cl)c(Cl)c2)O[C@@H](n2ccc3c(N)ncnc32)[C@@H]1O.O=P(O)(O)O` [Formula ID, (2R,3S,4R,5R)-5-(4-amino-7H-pyrrolo[2,3-d]pyrimidin-7-yl)-2-((R)-(3,4-dichlorophenyl)(hydroxy)methyl)-3-methyltetrahydrofuran-3,4-diol, phosphate salt], with less than 300 µg/mL.
In turn, `CC(=O)CC(c1ccccc1)c1c(O)c2ccccc2oc1=O` (stereo not shown) [Warfarin] came in with a solubility at 4 h in data set [1] of 10 to 25 µg/mL (≈ 32.4 to 81.1 µM).
